Test [1] has as its target Her2 Exon 20 INSYVMA Ba/F3 (Homo sapiens, UniProt P04626, DUP772-775, cells depend on it). Nature of the test: Her2 Exon 20 INSYVMA Ba/F3 CellTiter-Glo. It is filed as cell-based. The settings on record: CellTiter-Glo, 72 h, read-out: Her2 Exon 20 INSYVMA Ba/F3 CTG IC50. In short, it runs like this: (§1)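 Ba/F3 cells dependent on the mutant kinase, seeded and grown 24 h, then treated with compound for 72 h at 37 °C, 5% CO2. Viability by CellTiter-Glo ATP luminescence versus DMSO and 10 μM staurosporine controls; IC50 from dose-response fit, plates accepted at Z′ ≥0.5; bins A ≤100 nM to E >10000 nM.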
In general terms: In ATP-based viability assays light output follows the ATP content of the culture.

Test [2] addresses EGFR Exon 20 INSNPH Ba/F3 (Homo sapiens, UniProt P00533, DUP771-773, cells depend on it). Put plainly: EGFR Exon 20 INSNPH Ba/F3 CellTiter-Glo. In kind it is cell-based. The settings on record: CellTiter-Glo, 72 h, read-out: EGFR Exon 20 INSNPH Ba/F3 CTG IC50. Summed up:
as §1

Another test addresses EGFR wt (Homo sapiens, UniProt P00533). Put plainly: EGFR wt Lance assay. It is filed as biochemical. The procedure:
(§2) Inhibition is indicated as […] [nM] (“−”=not measured). Compounds having an activity designated as “A” provided an IC50≤100 nM; compounds having an activity designated as “B” provided an 100 nM<IC50≤500 nM; compounds having an activity designated as “C” provided an 500 nM<IC50≤1000 nM; compounds having an activity designated as “D” provided an 1000 nM<IC50≤100000 nM; and compounds having an activity designated as “E” provided an IC50>10000 nM.

Another test deals with A431. Nature of the test: A431 CellTiter-Glo. In kind it is cell-based. The settings on record: Homo sapiens, A-431; 72 h compound incubation; read-out: A431 CTG IC50. Summed up: (§3)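 ATP-based luminescent viability read after 72 h compound exposure (DMSO vehicle, range of concentrations), cells plated 24 h beforehand at 37° C, 5% CO2. IC50 by dose-response fitting; 10 μM Staurosporine and DMSO controls, Z′-factor ≥0.5 required.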

For a further test, the system named is H1975. Nature of the test: H1975 CellTiter-Glo. It is filed as cell-based. The settings on record: Homo sapiens, NCI-H1975; 72 h compound incubation; read-out: H1975 CTG IC50. Summed up:
as §3

In another test the target is EGFR T790ML858R (Homo sapiens, UniProt P00533, L858R/T790M). Nature of the test: EGFR T790ML858R Lance assay. In kind it is biochemical. On the procedure: as §2
Another test concerns the target T1, HER2 INS YVMA (Homo sapiens, UniProt P04626, INS775YVMA).
T1 construct: purchased DPF
Put plainly: Lance Kinase Activity Assay, HER2 INS YVMA (Her2 Exon 20 INSYVMA Lance). In kind it is biochemical. The settings on record: biochemical Lance assay. In short, it runs like this: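 IC50 was fitted to sigmoidal curves of TR-FRET signal (665 and 615 nm emission after 340 nm excitation) from an Eu anti-phospho antibody binding the phosphorylated ULight peptide. The ATP-started reaction ran 1 h at RT and was then quenched with 10 mM EDTA plus antibody for a further 1 h. Compounds were tested as 8-point, 3-fold dilutions.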

Chain of EGFR wt (P00533 25-1210): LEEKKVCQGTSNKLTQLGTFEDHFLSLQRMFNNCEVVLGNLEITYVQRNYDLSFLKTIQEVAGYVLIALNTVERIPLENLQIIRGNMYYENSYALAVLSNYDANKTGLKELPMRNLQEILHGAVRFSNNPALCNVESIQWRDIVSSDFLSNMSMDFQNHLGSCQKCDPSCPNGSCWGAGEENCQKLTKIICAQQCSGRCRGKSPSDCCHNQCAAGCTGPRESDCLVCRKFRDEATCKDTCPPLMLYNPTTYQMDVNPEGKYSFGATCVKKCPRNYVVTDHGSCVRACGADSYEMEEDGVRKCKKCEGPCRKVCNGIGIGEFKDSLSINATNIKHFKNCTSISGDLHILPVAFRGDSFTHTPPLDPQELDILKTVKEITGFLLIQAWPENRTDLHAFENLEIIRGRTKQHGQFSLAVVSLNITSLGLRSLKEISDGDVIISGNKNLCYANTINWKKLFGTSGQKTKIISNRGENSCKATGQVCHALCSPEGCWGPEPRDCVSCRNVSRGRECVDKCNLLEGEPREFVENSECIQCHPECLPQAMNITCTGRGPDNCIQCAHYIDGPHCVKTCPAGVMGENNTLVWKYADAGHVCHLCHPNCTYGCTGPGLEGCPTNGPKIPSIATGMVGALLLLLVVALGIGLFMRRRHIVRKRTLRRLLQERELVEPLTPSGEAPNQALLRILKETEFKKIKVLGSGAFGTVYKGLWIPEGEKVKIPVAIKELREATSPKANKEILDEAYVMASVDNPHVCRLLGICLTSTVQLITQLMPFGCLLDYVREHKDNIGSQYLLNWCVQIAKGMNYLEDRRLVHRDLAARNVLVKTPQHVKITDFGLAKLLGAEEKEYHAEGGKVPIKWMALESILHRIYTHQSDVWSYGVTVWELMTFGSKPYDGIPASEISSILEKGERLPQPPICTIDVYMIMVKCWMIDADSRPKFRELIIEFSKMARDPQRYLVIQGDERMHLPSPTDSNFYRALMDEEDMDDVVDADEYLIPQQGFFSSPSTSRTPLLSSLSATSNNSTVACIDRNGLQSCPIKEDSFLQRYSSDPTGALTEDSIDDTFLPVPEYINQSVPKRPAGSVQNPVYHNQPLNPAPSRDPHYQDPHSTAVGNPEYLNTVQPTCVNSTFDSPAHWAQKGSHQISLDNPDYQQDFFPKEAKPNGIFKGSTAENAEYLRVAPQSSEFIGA
Chain of Her2 Exon 20 INSYVMA Ba/F3 (P04626 with tags, fused parts or gaps DUP772-775): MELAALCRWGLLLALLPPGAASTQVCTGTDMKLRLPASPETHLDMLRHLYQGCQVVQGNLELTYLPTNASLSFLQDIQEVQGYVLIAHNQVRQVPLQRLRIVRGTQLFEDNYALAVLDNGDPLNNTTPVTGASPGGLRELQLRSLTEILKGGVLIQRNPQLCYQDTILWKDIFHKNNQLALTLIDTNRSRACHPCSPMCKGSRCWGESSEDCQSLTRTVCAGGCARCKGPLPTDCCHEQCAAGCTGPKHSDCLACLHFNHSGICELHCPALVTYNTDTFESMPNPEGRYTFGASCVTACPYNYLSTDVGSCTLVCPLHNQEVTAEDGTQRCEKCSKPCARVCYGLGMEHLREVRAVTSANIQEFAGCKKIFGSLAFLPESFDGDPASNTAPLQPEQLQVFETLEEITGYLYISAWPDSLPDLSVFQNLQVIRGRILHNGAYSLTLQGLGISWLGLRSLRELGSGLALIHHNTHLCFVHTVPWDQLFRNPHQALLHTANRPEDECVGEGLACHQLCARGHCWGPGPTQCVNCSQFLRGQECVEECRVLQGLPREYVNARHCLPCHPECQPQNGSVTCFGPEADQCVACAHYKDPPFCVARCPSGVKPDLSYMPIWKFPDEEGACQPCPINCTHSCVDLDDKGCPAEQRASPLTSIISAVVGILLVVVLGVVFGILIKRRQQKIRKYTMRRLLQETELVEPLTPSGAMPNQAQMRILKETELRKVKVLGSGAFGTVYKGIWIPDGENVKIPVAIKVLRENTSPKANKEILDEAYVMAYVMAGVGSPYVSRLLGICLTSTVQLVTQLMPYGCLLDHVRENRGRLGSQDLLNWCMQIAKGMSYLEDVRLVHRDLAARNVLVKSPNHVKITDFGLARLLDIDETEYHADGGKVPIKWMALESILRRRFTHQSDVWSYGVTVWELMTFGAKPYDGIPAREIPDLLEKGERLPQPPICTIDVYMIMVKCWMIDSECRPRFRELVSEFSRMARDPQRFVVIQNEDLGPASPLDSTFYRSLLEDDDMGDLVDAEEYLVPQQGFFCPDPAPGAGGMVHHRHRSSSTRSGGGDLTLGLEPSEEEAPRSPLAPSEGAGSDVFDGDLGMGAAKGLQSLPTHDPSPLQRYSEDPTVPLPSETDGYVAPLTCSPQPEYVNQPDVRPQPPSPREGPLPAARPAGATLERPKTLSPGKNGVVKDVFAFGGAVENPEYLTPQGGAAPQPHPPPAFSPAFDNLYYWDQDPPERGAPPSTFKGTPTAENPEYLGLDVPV
Chain of EGFR T790ML858R (P00533 25-1210 T790M/L858R): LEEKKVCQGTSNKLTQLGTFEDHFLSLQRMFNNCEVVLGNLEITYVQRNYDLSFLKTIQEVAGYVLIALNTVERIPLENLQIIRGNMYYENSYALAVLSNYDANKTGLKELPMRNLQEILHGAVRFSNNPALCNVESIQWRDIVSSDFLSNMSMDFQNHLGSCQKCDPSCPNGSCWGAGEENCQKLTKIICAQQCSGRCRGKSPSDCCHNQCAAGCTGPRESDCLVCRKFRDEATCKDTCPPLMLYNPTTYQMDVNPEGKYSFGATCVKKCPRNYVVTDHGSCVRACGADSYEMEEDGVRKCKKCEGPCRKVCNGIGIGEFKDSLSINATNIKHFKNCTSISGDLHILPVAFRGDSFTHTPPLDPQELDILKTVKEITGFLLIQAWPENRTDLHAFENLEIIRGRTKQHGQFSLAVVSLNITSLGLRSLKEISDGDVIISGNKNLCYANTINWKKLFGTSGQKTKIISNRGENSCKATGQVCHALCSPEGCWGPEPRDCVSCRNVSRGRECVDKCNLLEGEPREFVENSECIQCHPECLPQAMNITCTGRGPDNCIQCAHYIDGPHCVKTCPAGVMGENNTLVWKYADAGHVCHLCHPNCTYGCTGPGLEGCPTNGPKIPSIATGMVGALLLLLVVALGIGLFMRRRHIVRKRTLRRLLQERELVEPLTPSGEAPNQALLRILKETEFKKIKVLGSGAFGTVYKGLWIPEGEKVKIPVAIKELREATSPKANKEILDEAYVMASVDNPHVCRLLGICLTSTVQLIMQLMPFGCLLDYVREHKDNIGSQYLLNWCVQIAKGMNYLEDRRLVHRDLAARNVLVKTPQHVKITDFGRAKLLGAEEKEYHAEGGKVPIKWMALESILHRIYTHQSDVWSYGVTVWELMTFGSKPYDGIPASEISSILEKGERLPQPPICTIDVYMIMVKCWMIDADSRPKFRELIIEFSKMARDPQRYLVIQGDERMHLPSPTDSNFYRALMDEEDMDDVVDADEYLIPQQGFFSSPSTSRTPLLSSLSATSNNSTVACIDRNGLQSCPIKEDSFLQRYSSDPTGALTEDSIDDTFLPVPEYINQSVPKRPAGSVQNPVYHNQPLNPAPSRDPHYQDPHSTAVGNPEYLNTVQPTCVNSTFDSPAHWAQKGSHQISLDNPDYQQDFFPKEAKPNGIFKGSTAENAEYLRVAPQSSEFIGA
Chain of EGFR Exon 20 INSNPH Ba/F3 (P00533 with tags, fused parts or gaps DUP771-773): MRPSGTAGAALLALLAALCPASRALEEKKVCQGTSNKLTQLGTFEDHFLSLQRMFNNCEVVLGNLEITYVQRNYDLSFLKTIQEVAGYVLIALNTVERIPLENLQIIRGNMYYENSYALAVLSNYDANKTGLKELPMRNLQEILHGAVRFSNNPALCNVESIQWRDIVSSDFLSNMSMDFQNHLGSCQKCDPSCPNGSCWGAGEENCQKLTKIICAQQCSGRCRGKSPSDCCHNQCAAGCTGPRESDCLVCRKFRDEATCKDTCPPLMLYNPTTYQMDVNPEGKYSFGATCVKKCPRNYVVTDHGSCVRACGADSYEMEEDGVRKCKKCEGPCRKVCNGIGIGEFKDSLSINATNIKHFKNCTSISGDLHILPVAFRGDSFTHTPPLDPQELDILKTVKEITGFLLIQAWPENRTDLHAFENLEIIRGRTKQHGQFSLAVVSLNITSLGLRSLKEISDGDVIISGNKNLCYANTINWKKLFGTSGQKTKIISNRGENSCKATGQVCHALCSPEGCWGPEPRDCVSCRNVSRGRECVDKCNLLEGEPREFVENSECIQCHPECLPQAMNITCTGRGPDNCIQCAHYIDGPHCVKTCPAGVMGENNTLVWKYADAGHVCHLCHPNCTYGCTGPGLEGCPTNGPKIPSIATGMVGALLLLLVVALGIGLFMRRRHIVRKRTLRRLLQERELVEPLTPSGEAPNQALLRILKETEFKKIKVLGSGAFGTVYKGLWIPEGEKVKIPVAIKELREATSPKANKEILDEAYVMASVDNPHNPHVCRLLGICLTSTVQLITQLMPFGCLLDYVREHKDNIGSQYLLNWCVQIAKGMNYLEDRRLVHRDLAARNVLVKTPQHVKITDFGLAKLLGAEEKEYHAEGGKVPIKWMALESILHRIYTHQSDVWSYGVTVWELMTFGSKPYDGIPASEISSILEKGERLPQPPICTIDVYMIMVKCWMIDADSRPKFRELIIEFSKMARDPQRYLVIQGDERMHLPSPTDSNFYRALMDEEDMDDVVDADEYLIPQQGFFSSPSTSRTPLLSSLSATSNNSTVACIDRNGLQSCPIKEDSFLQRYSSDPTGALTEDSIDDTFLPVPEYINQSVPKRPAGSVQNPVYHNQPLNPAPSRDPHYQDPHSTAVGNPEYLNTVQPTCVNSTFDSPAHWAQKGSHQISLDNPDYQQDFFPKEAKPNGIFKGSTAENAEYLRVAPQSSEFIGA

A word on the IC50: it is the concentration at which inhibition is half-maximal. Regarding `C=CC(=O)Nc1cc(-c2c(-c3ccc(N4CCN(C)CC4)cc3)[nH]c3ncc(C(=O)OC4CCCC4)cc23)ccc1C` [Example 139, cyclopentyl 3-(3-acrylamido-4-methylphenyl)-2-(4-(4-methylpiperazin-1-yl)phenyl)-1H-pyrrolo[2,3-b]pyridine-5-carboxylate], the GI50 in test [1] and in test [2] was 500 to 1000 nM in each case. The IC50 is not above 100 nM against EGFR wt; 1000 to 100000 nM in the test on A431; 100 to 500 nM with H1975; not above 100 nM against EGFR T790ML858R; 100 to 500 nM on HER2 INS YVMA.

Consider `Cc1ccc(-c2c(-c3ccc(N4CCN(C)CC4)cc3)[nH]c3ncc(C(=O)OC(C)C)cc23)cc1NC(=O)/C=C/CN(C)C` [Example 148, (E)-isoproyl 3-(3-(4-(dimethylamino)but-2-enamido)-4-methylphenyl)-2-(4-(4-methylpiperazin-1-yl)phenyl)-1H-pyrrolo[2,3-b]pyridine-5-carboxylate 2,2,2-trifluoroacetate], for which the figures for the GI50 in test [1] and in test [2] were 100 to 500 nM and 500 to 1000 nM, respectively. The IC50 against EGFR wt is not above 100 nM; in the test on A431 it was 1000 to 100000 nM; in the test on H1975, 500 to 1000 nM; on EGFR T790ML858R it was not above 100 nM; against HER2 INS YVMA, not above 100 nM.

Regarding `C=CC(=O)Nc1cc(-c2c(-c3ccc(N4CCN(C)CC4)cc3)[nH]c3ncc(C(=O)NCc4cccc(S(N)(=O)=O)c4)cc23)ccc1C` [Example 126, 3-(3-acrylamido-4-methylphenyl)-2-(4-(4-methylpiperazin-1-yl)phenyl)-N-(3-sulfamoylbenzyl)-1H-pyrrolo[2,3-b]pyridine-5-carboxamide], the GI50 in test [1] and in test [2] was more than 10000 nM each time. The half-inhibitory concentration (IC50) is not above 100 nM at EGFR wt; more than 10000 nM in the test on A431; more than 10000 nM in the test on H1975; not above 100 nM at EGFR T790ML858R; 100 to 500 nM on HER2 INS YVMA.

In the case of `C=CC(=O)Nc1cc(-c2c(-c3ccc(N4CCN(C)CC4)cc3)[nH]c3ncc(CC(=O)N(C)C)cc23)ccc1C` [Example 194, N-(5-(5-(2-(dimethylamino)-2-oxoethyl)-2-(4-(4-methylpiperazin-1-yl)phenyl)-1H-pyrrolo[2,3-b]pyridin-3-yl)-2-methylphenyl)acrylamide 2,2,2-trifluoroacetate], the GI50 in test [1] and in test [2] was 1000 to 10000 nM each time. The IC50 against EGFR wt was not above 100 nM; in the test with A431, 1000 to 100000 nM; in the test with H1975 it was 1000 to 100000 nM; against EGFR T790ML858R, not above 100 nM; against HER2 INS YVMA, not above 100 nM.

Regarding `C=CC(=O)N1CCCc2ccc(-c3c(-c4cccc(OCCN5CCCC5)c4)[nH]c4nccc(Cl)c34)cc21` [Example 94, 1-(7-(4-chloro-2-(3-(2-(pyrrolidin-1-yl)ethoxy)phenyl)-1H-pyrrolo[2,3-b]pyridin-3-yl)-3,4-dihydroquinolin-1(2H)-yl)prop-2-en-1-one], the GI50 in test [1] and in test [2] was 1000 to 10000 nM each time. Also, the IC50 on EGFR wt was not above 100 nM; in the test on A431 it was 1000 to 100000 nM; with H1975, 100 to 500 nM; at EGFR T790ML858R, not above 100 nM; on HER2 INS YVMA it was not above 100 nM.

On to `C#CC(=O)Nc1cc(-c2c(-c3ccc(N4CCN(C)CC4)cc3)[nH]c3nccc(Cl)c23)ccc1C` [Example 144, N-(5-(4-chloro-2-(4-(4-methylpiperazin-1-yl)phenyl)-1H-pyrrolo[2,3-b]pyridin-3-yl)-2-methylphenyl)propiolamide 2,2,2-trifluoroacetate], for which the GI50 in test [1] and in test [2] was 1000 to 10000 nM each time. In addition, the IC50 against EGFR wt was not above 100 nM; in the test on A431, 1000 to 100000 nM; in the test with H1975 it was 1000 to 100000 nM; at EGFR T790ML858R it was not above 100 nM; on HER2 INS YVMA, not above 100 nM.

Take `C=CC(=O)Nc1cc(-c2c(-c3ccc(N4CCN(C)CC4)cc3)[nH]c3ncc(NC(=O)C(C)C)cc23)ccc1C` [Example 200, N-(5-(5-isobutyramido-2-(4-(4-methylpiperazin-1-yl)phenyl)-1H-pyrrolo[2,3-b]pyridin-3-yl)-2-methylphenyl)acrylamide 2,2,2-trifluoroacetate]: the GI50 in test [1] and in test [2] was 100 to 500 nM throughout. In addition, the IC50 is not above 100 nM at EGFR wt; 1000 to 100000 nM with A431; 1000 to 100000 nM in the test with H1975; not above 100 nM against EGFR T790ML858R; not above 100 nM against HER2 INS YVMA.

Turning to `C=CC(=O)Nc1cc(-c2c(-c3ccc(N4CCN(C)CC4)cc3)[nH]c3ncc(CC(=O)OC(C)C)cc23)ccc1C` [Example 190, isopropyl 2-(3-(3-acrylamido-4-methylphenyl)-2-(4-(4-methylpiperazin-1-yl)phenyl)-1H-pyrrolo[2,3-b]pyridin-5-yl)acetate 2,2,2-trifluoroacetate], the GI50 in test [1] and in test [2] was 100 to 500 nM in each case. In addition, the IC50 against EGFR wt is not above 100 nM; in the test on A431, 1000 to 100000 nM; with H1975, 100 to 500 nM; against EGFR T790ML858R it was not above 100 nM; on HER2 INS YVMA, not above 100 nM.

For `C=CC(=O)Nc1cc(-c2c(-c3cccc(C(=O)NCCCN4CCN(CC)CC4)c3)[nH]c3nccc(Cl)c23)ccc1C` [Example 54, 3-(3-(3-acrylamido-4-methylphenyl)-4-chloro-1H-pyrrolo[2,3-b]pyridin-2-yl)-N-(3-(4-ethylpiperazin-1-yl)propyl)benzamide], the GI50 in test [1] and in test [2] was 1000 to 10000 nM each time. Besides, the IC50 is not above 100 nM against EGFR wt; 1000 to 100000 nM in the test with A431; 100 to 500 nM in the test on H1975; not above 100 nM against EGFR T790ML858R; 100 to 500 nM on HER2 INS YVMA.

Turning to `C/C=C/C(=O)Nc1cc(-c2c(-c3ccc(N4CCN(C)CC4)cc3)[nH]c3nccc(Cl)c23)ccc1C` [Example 142, (E)-N-(5-(4-chloro-2-(4-(4-methylpiperazin-1-yl)phenyl)-1H-pyrrolo[2,3-b]pyridin-3-yl)-2-methylphenyl)but-2-enamide 2,2,2-trifluoroacetate], the GI50 in test [1] and in test [2] was 1000 to 10000 nM throughout. The IC50 is not above 100 nM at EGFR wt; 1000 to 100000 nM with A431; 100 to 500 nM with H1975; not above 100 nM at EGFR T790ML858R; 500 to 1000 nM against HER2 INS YVMA.

For `C=CC(=O)Nc1cc(-c2c(-c3ccc(N4CCN(C)CC4)cc3)[nH]c3ncc(C(=O)NCc4nncn4C)cc23)ccc1C` [Example 130, 3-(3-acrylamido-4-methylphenyl)-N-((4-methyl-4H-1,2,4-triazol-3-yl)methyl)-2-(4-(4-methylpiperazin-1-yl)phenyl)-1H-pyrrolo[2,3-b]pyridine-5-carboxamide], the GI50 in test [1] and in test [2] was more than 10000 nM throughout. The IC50 is not above 100 nM against EGFR wt; more than 10000 nM in the test on A431; more than 10000 nM in the test on H1975; 100 to 500 nM against EGFR T790ML858R; 100 to 500 nM against HER2 INS YVMA.

Take `C=CC(=O)Nc1cc(-c2c(-c3ccnc(N4CCN(C)CC4)c3)[nH]c3ncc(C(=O)OC(C)C)cc23)cc(F)c1C` [Example 180, isopropyl 3-(3-acrylamido-5-fluoro-4-methylphenyl)-2-(2-(4-methylpiperazin-1-yl)pyridin-4-yl)-1H-pyrrolo[2,3-b]pyridine-5-carboxylate]: the GI50 in test [1] and in test [2] was 100 to 500 nM each time. The IC50 against EGFR wt is not above 100 nM; in the test with A431, 1000 to 100000 nM; in the test on H1975, 500 to 1000 nM; on EGFR T790ML858R, not above 100 nM; on HER2 INS YVMA, not above 100 nM.

In the case of `C=CC(=O)N1CCc2ccc(-c3c(-c4ccnc(N5CCN(C)CC5)c4)[nH]c4nccc(OCC)c34)cc21` [Example 105], the GI50 in test [1] and in test [2] was 100 to 500 nM in each case. Also, the IC50 on EGFR wt was not above 100 nM; in the test with A431, 100 to 500 nM; with H1975, not above 100 nM; against EGFR T790ML858R, not above 100 nM; against HER2 INS YVMA, not above 100 nM.

`C=CC(=O)N1CCc2ccc(-c3c(-c4ccc(OCCN5CCCC5)cc4)[nH]c4nccc(OCC)c34)cc21` [Example 107, 1-(6-(4-ethoxy-2-(4-(2-(pyrrolidin-1-yl)ethoxy)phenyl)-1H-pyrrolo[2,3-b]pyridin-3-yl)indolin-1-yl)prop-2-en-1-one]: the GI50 in test [1] and in test [2] was 100 to 500 nM throughout. Besides, the IC50 was not above 100 nM against EGFR wt; 500 to 1000 nM in the test with A431; not above 100 nM in the test on H1975; not above 100 nM against EGFR T790ML858R; not above 100 nM on HER2 INS YVMA.
